Source: patent publication US20240208953A1, “"Cyclopenta[c]pyrrol Negative Allosteric Modulators of NR2B"” (Novartis AG, priority 2021, published 2024)

target: NR2B (Rattus norvegicus (Rat), UniProt Q00960); test: NR2B rat cortical neuron calcium influx assay; format: cell-based; conditions: rat cortical neurons, glutamate and glycine stimulated calcium influx
Text: Example 1: NR2B Rat Cortical Neuron Calcium Influx Assay Protocol
Embryonic day 18 timed pregnant Sprague Dawley rats were euthanized according to Institutional Animal Care and Use Committee (IACUC) protocol. After cutting medially through the skin and exposing the uterus and embryos, fetuses were removed and placed in cold Hibernate medium. Each embryo's brain was extracted and cerebral cortices were isolated by removing the midbrain and meninges. The dissected cortices were then dissociated into the neurons using papain dissociation system (Worthington Biochemical Corporation) according the manufacturer's protocol.
Dissociated neurons were counted and plated into 384-well poly-D-lysine coated plates (Corning® BioCoat™) at a density of 20,000 cells/well in 30 μL of Neurobasal/B27 complete medium. Neurons were cultured at 37° C. for 2 days. On the assay day, medium was removed and cells were incubated with 20 μL/well of calcium dye (Calcium 6 Assay Kit, Molecular Devices) suspended in HBSS with 1.8 mM Ca^2+ (Ca-HBSS) according to the manufacturer's instruction.
Compounds of interest from 10 mM stock were serially diluted into 3× of desired concentrations in 1.8 mM Ca-HBSS, and 10 μL were added to the wells. Compound and the neurons were incubated at 37° C. for 2 hours in the dark.
On FDSS7000EX (Hamamatsu Photonics), a fluorescence measuring instrument, 10 μL of 4× ligand solution containing glutamate and glycine made in 1.8 mM Ca^2+-HBSS were added to each well. The fluorescent signals were collected before and after the addition of ligands for a total of 2 minutes. The data were converted to a ratio of the peak fluorescence to the fluorescence at the beginning of the measurement.
Each data point was measured in duplicates. Dose response curves were used to identify IC50 and maximal inhibition values. IC50 represents the concentration in μM of compound at which there is a half-maximal compound effect. Maximal inhibition of a compound is expressed as a percent of the highest inhibition of activity over a no compound control.

NR2B, sequence (Q00960 27-1482, other chains not shown): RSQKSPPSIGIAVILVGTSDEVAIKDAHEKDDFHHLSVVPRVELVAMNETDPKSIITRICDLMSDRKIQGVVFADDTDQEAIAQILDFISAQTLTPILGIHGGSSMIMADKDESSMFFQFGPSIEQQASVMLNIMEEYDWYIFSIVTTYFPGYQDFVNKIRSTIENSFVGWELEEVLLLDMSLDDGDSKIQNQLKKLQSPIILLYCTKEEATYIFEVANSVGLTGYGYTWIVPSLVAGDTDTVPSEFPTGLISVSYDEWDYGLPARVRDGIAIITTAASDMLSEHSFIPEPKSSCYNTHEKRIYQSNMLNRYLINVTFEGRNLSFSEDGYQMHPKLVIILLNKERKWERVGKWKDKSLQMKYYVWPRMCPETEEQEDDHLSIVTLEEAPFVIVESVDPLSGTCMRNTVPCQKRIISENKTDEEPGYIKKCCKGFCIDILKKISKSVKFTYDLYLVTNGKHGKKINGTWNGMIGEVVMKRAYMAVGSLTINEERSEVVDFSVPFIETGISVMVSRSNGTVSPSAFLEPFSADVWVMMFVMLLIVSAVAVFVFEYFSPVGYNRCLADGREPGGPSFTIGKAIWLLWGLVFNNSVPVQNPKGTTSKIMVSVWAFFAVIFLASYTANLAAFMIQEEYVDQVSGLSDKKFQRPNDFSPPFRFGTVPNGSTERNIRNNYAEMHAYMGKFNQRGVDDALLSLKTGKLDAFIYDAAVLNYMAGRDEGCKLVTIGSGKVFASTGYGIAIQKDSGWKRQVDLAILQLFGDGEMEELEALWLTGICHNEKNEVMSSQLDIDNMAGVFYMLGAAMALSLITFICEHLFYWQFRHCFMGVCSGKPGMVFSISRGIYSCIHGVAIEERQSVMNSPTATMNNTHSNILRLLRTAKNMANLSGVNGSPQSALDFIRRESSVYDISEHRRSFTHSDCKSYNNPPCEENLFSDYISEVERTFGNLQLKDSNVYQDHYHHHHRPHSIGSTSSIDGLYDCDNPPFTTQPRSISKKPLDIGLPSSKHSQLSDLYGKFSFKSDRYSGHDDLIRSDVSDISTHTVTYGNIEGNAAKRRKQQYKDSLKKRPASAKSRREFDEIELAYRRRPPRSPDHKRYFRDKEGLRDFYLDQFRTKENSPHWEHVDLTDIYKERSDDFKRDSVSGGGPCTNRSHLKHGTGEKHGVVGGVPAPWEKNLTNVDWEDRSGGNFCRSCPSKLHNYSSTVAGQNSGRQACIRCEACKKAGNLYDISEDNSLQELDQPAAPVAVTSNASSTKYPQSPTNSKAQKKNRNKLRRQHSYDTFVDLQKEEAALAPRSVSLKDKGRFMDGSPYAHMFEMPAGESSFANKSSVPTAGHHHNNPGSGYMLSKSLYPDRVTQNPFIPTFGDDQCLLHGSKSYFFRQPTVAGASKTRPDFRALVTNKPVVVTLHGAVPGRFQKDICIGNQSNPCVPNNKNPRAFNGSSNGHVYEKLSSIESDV

Point of comparison: `O=C1Nc2ccc([C@H](O)CN3C[C@H]4C[C@H](Oc5ccccc5F)C[C@@]4(O)C3)cc2CCO1` (single isomer, unassigned) [Example 12B], IC50 0.25 nM. Against it:
- O=C1CCc2cc([C@@H](O)CN3C[C@H]4C[C@H](Oc5ccc(F)cc5)C[C@@]4(O)C3)ccc2N1 (single isomer, unassigned) [Example 22A] — 92-fold higher, 23 nM
- CC1(C)Cc2cc([C@H](O)CN3C[C@H]4C[C@H](Oc5ccccc5)C[C@@]4(O)C3)ccc2NC1=O (single isomer, unassigned) [Example 11B] — 10-fold higher, 2.6 nM
- O=c1[nH]c2ccc([C@H](O)CN3C[C@H]4C[C@H](Oc5ccccc5F)C[C@@]4(O)C3)cc2o1 (single isomer, unassigned) [Example 40B] — 110-fold higher, 28 nM
- O=C1CCc2cc([C@@H](O)CN3C[C@H]4C[C@H](Oc5cccc(F)c5F)C[C@@]4(O)C3)ccc2N1 (single isomer, unassigned) [Example 24A] — 64-fold higher, 16 nM
- O=C1CCc2cc([C@H](O)CN3C[C@H]4C[C@H](Oc5ccc(F)cc5)C[C@@]4(O)C3)ccc2N1 (single isomer, unassigned) [Example 22B] — 1700-fold higher, 420 nM
- O=C1Nc2c(cc([C@H](O)CN3C[C@H]4C[C@H](Oc5ccccc5)C[C@@]4(O)C3)c(F)c2F)CO1 (single isomer, unassigned) [Example 38B] — 31-fold higher, 7.8 nM
- O=c1[nH]c2ccc([C@@H](O)CN3C[C@H]4C[C@H](Oc5ccccc5F)C[C@@]4(O)C3)cc2o1 (single isomer, unassigned) [Example 40A] — 28-fold higher, 6.9 nM
- O=C1CCc2cc([C@H](O)CN3C[C@H]4C[C@H](Oc5ccccc5F)C[C@@]4(O)C3)ccc2N1 [Example 5B, 6-((S)-2-((3aS,5S,6aR)-5-(2-fluorophenoxy)-3a-hydroxyhexahydrocyclopenta[c]pyrrol-2(1H)-yl)-1-hydroxyethyl)-3,4-dihydroquinolin-2(1H)-one] — 520-fold higher, 130 nM
- O=C1CCCc2cc([C@H](O)CN3C[C@H]4C[C@H](Oc5ccccc5)C[C@@]4(O)C3)cc(F)c2N1 (single isomer, unassigned) [Example 30B] — 68-fold higher, 17 nM
- O=C1CCc2cc([C@H](O)CN3C[C@H]4C[C@H](Oc5c(F)cccc5F)C[C@@]4(O)C3)ccc2N1 (single isomer, unassigned) [Example 27B] — 1200-fold higher, 290 nM
- O=C1CCc2cc([C@H](O)CN3C[C@H]4C[C@H](Oc5cc(F)ccc5F)C[C@@]4(O)C3)ccc2N1 (single isomer, unassigned) [Example 26B] — 1900-fold higher, 470 nM
- O=C1COCc2cc([C@H](O)CN3C[C@H]4C[C@H](Oc5ccccc5)C[C@@]4(O)C3)cc(F)c2N1 (single isomer, unassigned) [Example 32B] — 2400-fold higher, 600 nM
- O=C1CCc2cc([C@@H](O)CN3C[C@H]4C[C@H](Oc5ccc(F)cc5F)C[C@@]4(O)C3)ccc2N1 (single isomer, unassigned) [Example 25A] — higher, > 1100 nM
- O=C1CCc2cc([C@H](O)CN3C[C@H]4C[C@H](Oc5cccc(F)c5)C[C@@]4(O)C3)ccc2N1 (single isomer, unassigned) [Example 23B] — 1100-fold higher, 280 nM
- O=c1[nH]c2ccc([C@@H](O)CN3C[C@H]4C[C@H](Oc5ccccc5)C[C@@]4(O)C3)cc2o1 (single isomer, unassigned) [Example 39A] — 100-fold higher, 26 nM
- O=C1CCc2cc([C@H](O)CN3C[C@H]4C[C@H](Oc5ccc(F)cc5F)C[C@@]4(O)C3)ccc2N1 (single isomer, unassigned) [Example 25B] — 56-fold higher, 14 nM
- O=c1[nH]c2c(F)cc([C@@H](O)CN3C[C@H]4C[C@H](Oc5ccccc5)C[C@@]4(O)C3)cc2cc1F (single isomer, unassigned) [Example 20A] — 8-fold higher, 2 nM
- O=C1CCc2cc([C@@H](O)CN3C[C@H]4C[C@H](Oc5c(F)cccc5F)C[C@@]4(O)C3)ccc2N1 (single isomer, unassigned) [Example 27A] — higher, > 1100 nM
- O=C1CCCc2cc([C@H](O)CN3C[C@H]4C[C@H](Oc5ccccc5F)C[C@@]4(O)C3)ccc2N1 (single isomer, unassigned) [Example 43B] — 4.8-fold higher, 1.2 nM
- O=C1CCc2cc([C@@H](O)CN3C[C@H]4C[C@H](Oc5cc(F)ccc5F)C[C@@]4(O)C3)ccc2N1 (single isomer, unassigned) [Example 26A] — 1000-fold higher, 250 nM
- O=C1CCc2cc([C@H](O)CN3C[C@@H]4C[C@@H](Oc5ccc(F)cc5)C[C@]4(O)C3)ccc2N1 (single isomer, unassigned) [Example 22D] — 6.4-fold higher, 1.6 nM
- O=C1Nc2c(F)cc([C@H](O)CN3C[C@H]4C[C@H](Oc5ccccc5)C[C@@]4(O)C3)c(F)c2CO1 (single isomer, unassigned) [Example 37B] — 26-fold higher, 6.5 nM
- O=C1CCc2cc([C@@H](O)CN3C[C@H]4C[C@H](Oc5cccc(F)c5)C[C@@]4(O)C3)ccc2N1 (single isomer, unassigned) [Example 23A] — 130-fold higher, 33 nM
- O=C1Nc2c(F)cc([C@@H](O)CN3C[C@H]4C[C@H](Oc5ccccc5)C[C@@]4(O)C3)cc2C[C@@H]1F [Example 19] — 35-fold higher, 8.7 nM
- O=C1CCc2cc([C@H](O)CN3C[C@@H]4C[C@@H](Oc5ccc(F)cc5F)C[C@]4(O)C3)ccc2N1 (single isomer, unassigned) [Example 25D] — within 1.5-fold, 0.22 nM
- O=c1[nH]c2ccc([C@H](O)CN3C[C@H]4C[C@H](Oc5ccccc5)C[C@@]4(O)C3)cc2o1 (single isomer, unassigned) [Example 39B] — 340-fold higher, 86 nM
- O=C1Cc2cc([C@@H](O)CN3C[C@H]4C[C@H](Oc5ccccc5)[C@H](O)[C@@]4(O)C3)ccc2N1 [Example 3C, 5-((R)-2-((3aS,4S,5S,6aR)-3a,4-dihydroxy-5-phenoxyhexahydrocyclopenta[c]pyrrol-2(1H)-yl)-1-hydroxyethyl)indolin-2-one] — 1600-fold higher, 400 nM
- O=C1CCc2cc([C@H](O)CN3C[C@H]4C[C@H](Oc5ccccc5F)C[C@@]4(O)C3)cc(F)c2N1 (single isomer, unassigned) [Example 6B] — 4200-fold higher, 1060 nM
- O=C1CCc2cc([C@H](O)CN3C[C@H]4C[C@H](Oc5cccc(F)c5F)C[C@@]4(O)C3)ccc2N1 (single isomer, unassigned) [Example 24B] — 230-fold higher, 57 nM
- O=C1Cc2cc([C@H](O)CN3C[C@H]4C[C@H](Oc5ccccc5)[C@H](O)[C@@]4(O)C3)ccc2N1 [Example 3D, 5-((S)-2-((3aS,4S,5S,6aR)-3a,4-dihydroxy-5-phenoxyhexahydrocyclopenta[c]pyrrol-2(1H)-yl)-1-hydroxyethyl)indolin-2-one] — 300-fold higher, 75 nM
